Data: EP3875080B1, “DOSAGE FORM PROVIDING PROLONGED RELEASE OF […] SALT” (priority 2020, dated 2021)
Counter-ions that a name gives are not always drawn. Like-named read-outs stand apart in the source and are kept apart here.

Key:
[1] = thermodynamic solubility (saturation solubility); type: physicochemical; conditions: for solubility thermodynamic at 24 h: thermodynamic from solid, read-out: thermodynamic solubility, assay expressed as base
Experimental: The thermodynamic solubility of Tapentadol hydrochloride and of Tapentadol dihydrogen-phosphate (mixed form, batch with fine particles) was determined as saturation solubility in various media at various pH values. The solutions were stirred for 24 hours at 25 °C and the pH values of the solutions at the start and at the end of the experiments were measured. The dissolved amount of Tapentadol was quantified by HPLC (free base of Tapentadol).

[2] = in vitro dissolution of Tapentadol from tablets, paddle apparatus Ph. Eur.; type: physicochemical; conditions: for ethanol induced dose dumping: 0.1 N HCl (pH 1.0) containing 40 vol.-% ethanol compared to pH 1.0
Experimental: The in vitro dissolution of Tapentadol from the tablets (drug load 250 mg, C-1, I-1 and I-3) was measured in a paddle apparatus in accordance with Ph. Eur., equipped with sinker, at a rotational speed of 50 rpm at 37 °C in 900 ml of different dissolution media having different pH values. The experimental results are compiled in the table here below:
The in vitro dissolution of Tapentadol from the tablets (drug load 250 mg, I-4) was measured in a paddle apparatus in accordance with Ph. Eur., equipped with sinker, at a rotational speed of 50 rpm at 37 °C in 900 ml of 0.1 N HCl without ethanol (pH 1.0) and in 0.1 N HCl with 40 vol.-% ethanol (pH 1.0).

[3] = intrinsic dissolution (dissolution rate), Wood's apparatus; type: physicochemical
Experimental: 100 mg of Tapentadol, either in form of the hydrochloride salt or the dihydrogenphosphate salt (mixed form [batch with fine particles], pure hemihydrate or pure anhydrate) were compressed at a compressing force of 200 kg (gravitational) for 1 minute at a surface of 0.5 cm^2. The thus obtained compressed samples were investigated for their dissolution rate in a Wood's apparatus at 37 °C in 900 mL of dissolution medium at different pH values and a rotational speed of the paddle of 50 rpm.

[4] = in vivo, cited from earlier work

`CC[C@@H](c1cccc(O)c1)[C@@H](C)CN(C)C` [Tapentadol hydrochloride, reference compound] gave a pH end ([1]; 0.1 M HCl, pH start 1.11) of 0.83, a pH end ([1]; 0.15N NaOH, pH start 13.08) of 8.21 and a pH end ([1]; SIF sp pH 6.8, pH start 6.82) of 6.23. It also gave a pH end ([1]; acetate pH 4.5, pH start 4.54) of 4.29, a pH end ([1]; citrate pH 6.8, pH start 6.83) of 6.17 and a pH end ([1]; citrate pH 7.4, pH start 7.39) of 6.33. For the same compound, the solubility thermodynamic at 24 h ([1]; pH 1.11, aqueous buffer, 0.1 M HCl, pH start 1.11, 24 hours at 25 °C) was 312 mg/mL, the solubility thermodynamic at 24 h ([1]; pH 13.08, aqueous buffer, 0.15N NaOH, pH start 13.08, 24 hours at 25 °C) was 66 mg/mL and the pH end ([1]; water) was 4.63. The “ethanol induced dose dumping” value [2] was “no ethanol induced dose dumping”, the “intrinsic dissolution (dissolution rate)” value ([3]; pH 1.0, 0 min) was 0% and the “intrinsic dissolution (dissolution rate)” value ([3]; pH 1.0, 1 min) was 52%. For the same compound, the “intrinsic dissolution (dissolution rate)” value ([3]; pH 1.0, 3 min) was 95%, the “intrinsic dissolution (dissolution rate)” value ([3]; pH 1.0, 5 min) was 99% and the “intrinsic dissolution (dissolution rate)” value ([3]; pH 1.0, 7 min) was 99%. The “intrinsic dissolution (dissolution rate)” value ([3]; pH 1.0, 9 min) was 99%, the “intrinsic dissolution (dissolution rate)” value ([3]; pH 4.5, 0 min) was 0% and the “intrinsic dissolution (dissolution rate)” value ([3]; pH 4.5, 1 min) was 60%. For the same compound, the “intrinsic dissolution (dissolution rate)” value ([3]; pH 4.5, 3 min) was 91%, the “intrinsic dissolution (dissolution rate)” value ([3]; pH 4.5, 5 min) was 95% and the “intrinsic dissolution (dissolution rate)” value ([3]; pH 4.5, 7 min) was 95%. The “intrinsic dissolution (dissolution rate)” value ([3]; pH 4.5, 9 min) was 96%, the “intrinsic dissolution (dissolution rate)” value ([3]; pH 6.8, 0 min) was 0% and the “intrinsic dissolution (dissolution rate)” value ([3]; pH 6.8, 1 min) was 38%. The “intrinsic dissolution (dissolution rate)” value ([3]; pH 6.8, 3 min) was 79%, the “intrinsic dissolution (dissolution rate)” value ([3]; pH 6.8, 5 min) was 92% and the “intrinsic dissolution (dissolution rate)” value ([3]; pH 6.8, 7 min) was 94%. The “intrinsic dissolution (dissolution rate)” value ([3]; pH 6.8, 9 min) was 94%, the “intrinsic dissolution (dissolution rate)” value ([3]; pH 7.4, 0 min) was 0% and the “intrinsic dissolution (dissolution rate)” value ([3]; pH 7.4, 1 min) was 27%. The “intrinsic dissolution (dissolution rate)” value ([3]; pH 7.4, 3 min) was 65%, the “intrinsic dissolution (dissolution rate)” value ([3]; pH 7.4, 5 min) was 80% and the “intrinsic dissolution (dissolution rate)” value ([3]; pH 7.4, 7 min) was 89%. For the same compound, the “intrinsic dissolution (dissolution rate)” value ([3]; pH 7.4, 9 min) was 92%.

For `CN1CC[C@]23c4c5ccc(O)c4O[C@H]2C(=O)CC[C@@]3(O)[C@H]1C5` [Oxymorphone], the “Maximum individual Cmax ratio with 40% alcohol” value [4] is given as 2.70 and the “mean increase in Cmax ratio relative to drug co-ingested with 0% alcohol” value [4] is given as 1.70.

In the case of Tapentadol dihydrogenphosphate, the pH end ([1]; 0.1 M HCl, pH start 1.11) is reported as 2.55, the “thermodynamic solubility, assay expressed as base” value (from here on “thermodynamic solubility, assay”) ([1]; 0.1 M HCl, pH start 1.11, 24 hours at 25 °C) is reported as 24.3 g/100 mL and the pH end ([1]; 0.15N NaOH, pH start 13.08) is reported as 8.09. The “thermodynamic solubility, assay” value ([1]; 0.15N NaOH, pH start 13.08, 24 hours at 25 °C) was 6.5 g/100 mL, the pH end ([1]; SIF sp pH 6.8, pH start 6.82) was 2.81 and the “thermodynamic solubility, assay” value ([1]; SIF sp pH 6.8, pH start 6.82, 24 hours at 25 °C) was 20.2 g/100 mL. For the same compound, the pH end ([1]; acetate pH 4.5, pH start 4.54) was 2.81, the “thermodynamic solubility, assay” value ([1]; acetate pH 4.5, pH start 4.54, 24 hours at 25 °C) was 21.2 g/100 mL and the pH end ([1]; citrate pH 6.8, pH start 6.83) was 3.15. For the same compound, the “thermodynamic solubility, assay” value ([1]; citrate pH 6.8, pH start 6.83, 24 hours at 25 °C) was 19.3 g/100 mL, the pH end ([1]; citrate pH 7.4, pH start 7.39) was 3.16 and the “thermodynamic solubility, assay” value ([1]; citrate pH 7.4, pH start 7.39, 24 hours at 25 °C) was 19.0 g/100 mL. The “thermodynamic solubility compared with Tapentadol hydrochloride” value ([1]; under all tested conditions) was “below that of Tapentadol hydrochloride”, the pH end ([1]; water) was 2.75 and the “thermodynamic solubility, assay” value ([1]; water, 24 hours at 25 °C) was 21.4 g/100 mL. For the same compound, the “ethanol induced dose dumping” value [2] was “no ethanol induced dose dumping”, the “additional retardant effect in aqueous ethanol compared to Tapentadol hydrochloride” value ([2]; 0.1 N HCl (pH 1.0) containing 40 vol.-% ethanol, same excipients in same amounts) was “significantly stronger” and the “time difference to a release of 70% compared to Tapentadol hydrochloride” value ([2]; pH 4.5, aqueous buffer without ethanol) was “more than one”. The “dissolution rate compared with Tapentadol hydrochloride” value ([3]; at all tested pH values) was “significantly slower dissolution rate”, the “intrinsic dissolution (dissolution rate)” value ([3]; pH 1.0, 0 min) was 0% and the “intrinsic dissolution (dissolution rate)” value ([3]; pH 1.0, 1 min) was 14%. For the same compound, the “intrinsic dissolution (dissolution rate)” value ([3]; pH 1.0, 3 min) was 35%, the “intrinsic dissolution (dissolution rate)” value ([3]; pH 1.0, 5 min) was 56% and the “intrinsic dissolution (dissolution rate)” value ([3]; pH 1.0, 7 min) was 78%. For the same compound, the “intrinsic dissolution (dissolution rate)” value ([3]; pH 1.0, 9 min) was 84%, the “intrinsic dissolution (dissolution rate)” value ([3]; pH 4.5, 0 min) was 0% and the “intrinsic dissolution (dissolution rate)” value ([3]; pH 4.5, 1 min) was 12%. For the same compound, the “intrinsic dissolution (dissolution rate)” value ([3]; pH 4.5, 3 min) was 30%, the “intrinsic dissolution (dissolution rate)” value ([3]; pH 4.5, 5 min) was 49% and the “intrinsic dissolution (dissolution rate)” value ([3]; pH 4.5, 7 min) was 73%. For the same compound, the “intrinsic dissolution (dissolution rate)” value ([3]; pH 4.5, 9 min) was 86%, the “intrinsic dissolution (dissolution rate)” value ([3]; pH 6.8, 0 min) was 0% and the “intrinsic dissolution (dissolution rate)” value ([3]; pH 6.8, 1 min) was 11%. For the same compound, the “intrinsic dissolution (dissolution rate)” value ([3]; pH 6.8, 3 min) was 29%, the “intrinsic dissolution (dissolution rate)” value ([3]; pH 6.8, 5 min) was 48% and the “intrinsic dissolution (dissolution rate)” value ([3]; pH 6.8, 7 min) was 66%. The “intrinsic dissolution (dissolution rate)” value ([3]; pH 6.8, 9 min) was 77%, the “intrinsic dissolution (dissolution rate)” value ([3]; pH 7.4, 0 min) was 0% and the “intrinsic dissolution (dissolution rate)” value ([3]; pH 7.4, 1 min) was 12%. For the same compound, the “intrinsic dissolution (dissolution rate)” value ([3]; pH 7.4, 3 min) was 30%, the “intrinsic dissolution (dissolution rate)” value ([3]; pH 7.4, 5 min) was 46% and the “intrinsic dissolution (dissolution rate)” value ([3]; pH 7.4, 7 min) was 63%. The “intrinsic dissolution (dissolution rate)” value ([3]; pH 7.4, 9 min) was 78%.

For `CC[C@@H](c1cccc(O)c1)[C@@H](C)CN(C)C` [Tapentadol, (-)-(1R,2R)-3-(3-dimethylamino-1-ethyl-2-methyl-propyl)-phenol], the “Maximum individual Cmax ratio with 40% alcohol” value ([4]; 100 mg) is listed as 4.38, the “mean increase in Cmax ratio relative to drug co-ingested with 0% alcohol” value ([4]; 100 mg) is listed as 1.48 and the “Maximum individual Cmax ratio with 40% alcohol” value ([4]; 250 mg) is listed as 2.67. The “mean increase in Cmax ratio relative to drug co-ingested with 0% alcohol” value ([4]; 250 mg) was 1.28.

For `CC[C@@H](c1cccc(O)c1)[C@@H](C)CN(C)C.CC[C@@H](c1cccc(O)c1)[C@@H](C)CN(C)C.O.O=P(O)(O)O.O=P(O)(O)O` [Tapentadol dihydrogenphosphate hemihydrate], the “intrinsic dissolution (dissolution rate)” value ([3]; pH 1.2, 0 min) was 0%, the “intrinsic dissolution (dissolution rate)” value ([3]; pH 1.2, 1 min) was 14% and the “intrinsic dissolution (dissolution rate)” value ([3]; pH 1.2, 3 min) was 37%. The “intrinsic dissolution (dissolution rate)” value ([3]; pH 1.2, 5 min) was 54%, the “intrinsic dissolution (dissolution rate)” value ([3]; pH 1.2, 7 min) was 72% and the “intrinsic dissolution (dissolution rate)” value ([3]; pH 1.2, 9 min) was 84%. The “intrinsic dissolution (dissolution rate)” value ([3]; pH 6.8, 0 min) was 0%, the “intrinsic dissolution (dissolution rate)” value ([3]; pH 6.8, 1 min) was 12% and the “intrinsic dissolution (dissolution rate)” value ([3]; pH 6.8, 3 min) was 36%. The “intrinsic dissolution (dissolution rate)” value ([3]; pH 6.8, 5 min) was 66%, the “intrinsic dissolution (dissolution rate)” value ([3]; pH 6.8, 7 min) was 80% and the “intrinsic dissolution (dissolution rate)” value ([3]; pH 6.8, 9 min) was 83%.

In the case of `CC[C@@H](c1cccc(O)c1)[C@@H](C)CN(C)C.O=P(O)(O)O` [Tapentadol dihydrogenphosphate anhydrate], the “intrinsic dissolution (dissolution rate)” value ([3]; pH 1.2, 0 min) is reported as 0%, the “intrinsic dissolution (dissolution rate)” value ([3]; pH 1.2, 1 min) is reported as 15% and the “intrinsic dissolution (dissolution rate)” value ([3]; pH 1.2, 3 min) is reported as 37%. The “intrinsic dissolution (dissolution rate)” value ([3]; pH 1.2, 5 min) was 57%, the “intrinsic dissolution (dissolution rate)” value ([3]; pH 1.2, 7 min) was 75% and the “intrinsic dissolution (dissolution rate)” value ([3]; pH 1.2, 9 min) was 85%. The “intrinsic dissolution (dissolution rate)” value ([3]; pH 6.8, 0 min) was 0%, the “intrinsic dissolution (dissolution rate)” value ([3]; pH 6.8, 1 min) was 13% and the “intrinsic dissolution (dissolution rate)” value ([3]; pH 6.8, 3 min) was 36%. The “intrinsic dissolution (dissolution rate)” value ([3]; pH 6.8, 5 min) was 66%, the “intrinsic dissolution (dissolution rate)” value ([3]; pH 6.8, 7 min) was 90% and the “intrinsic dissolution (dissolution rate)” value ([3]; pH 6.8, 9 min) was 96%.

For `COc1ccc2c3c1O[C@H]1C(=O)CC[C@H]4[C@@H](C2)N(C)CC[C@]314` [Hydrocodone], the “Maximum individual Cmax ratio with 40% alcohol” value [4] is listed as 3.9 and the “mean increase in Cmax ratio relative to drug co-ingested with 0% alcohol” value [4] is listed as 2.3.
